Patent publication US9034897B2, “Indanyl-substituted 4,5,6,7-tetrahydro-1H-pyrazolo[4,3-C]pyridines, their use as medicament, and pharmaceutical preparations comprising them” (SANOFI, priority 2011, dated 2015)

What was measured:
Human TASK-1 channels = Human TASK-1 channels (Homo sapiens (Human), UniProt O14649); experiment: Activity on the TASK-1 channel in Xenopus oocytes (two-microelectrode voltage clamp); assay type: cell-based; details: for IC50: human TASK-1 expressed in Xenopus oocytes, currents during 500 ms pulses to 40 mV, room temperature; for inhibition at 5 µM: percentage inhibition of TASK-1 control current, Xenopus oocytes
Method: Determination of the activity on the TASK-1 channel in Xenopus oocytes:
Human TASK-1 channels were expressed in Xenopus oocytes. For this purpose, oocytes were isolated from Xenopus laevis and defolliculated. Subsequently, TASK-1-encoding RNA synthesized in vitro was injected into oocytes. After two days of TASK-1 protein expression, TASK-1 currents were measured by two-microelectrode voltage clamp. Data were acquired and analyzed using a TEC-10cx amplifier (NPI Electronic, Tamm, Germany) connected to an ITC-16 interface (Instrutech Corp., Long Island, USA) and Pulse software (HEKA Elektronik, Lambrecht, Germany). Oocytes were clamped to −90 mV and TASK-1 mediated currents were measured during 500 ms voltage pulses to 40 mV. Oocytes were continuously superfused with ND96 buffer containing: NaCl 96 mM, KCl2 mM, CaCl2 1.8 mM, MgCl2 1 mM, HEPES 5 mM (pH adjusted to 7.4 with NaOH). All experiments were performed at room temperature.
Test substances were consecutively added to the bath solution at rising concentrations. Compound effects were calculated as the percentage inhibition of
TASK-1 control current before compound application. IC50 values were obtained by fitting the data to the general dose-response equation.

[1] = system: left atrium of the anesthetized pig; experiment: Refractory period and left-atrial vulnerability in the anesthetized pig; assay type: in vivo; details: bolus 1 mg/kg, n = 2
Method: Investigation of the refractory period and the left-atrial vulnerability in the pig:
The compounds were tested for prolongation of the refractory period and antiarrhythmic activity on the atrium of the anesthetized pig as described in the literature (Knobloch et al. 2002. Naunyn-Schmiedberg's Arch. Pharmacol. 366; 482-487). Here the anti-arrhythmic action relates to the inhibition of the occurrence of episodes of arrhythmias which are induced by a prematurely placed extra-stimulus (S2) in the left atrium (=left-atrial vulnerability). The refractory period values are stated in percent of the basal values 15 minutes after injection. Mean values for the refractory periods are shown from three rates (150, 200 and 250/min). The inhibitory values for the inhibition of episodes of arrhythmias refer to 3 measurements (3 timepoints) before administration vs. 3 measurements during the first hour after administration of the compounds.
The action of 3-[5-Acetyl-1-((1R,2R)-6-chloro-4-fluoro-2-hydroxy-indan-1-yl)-4,5,6,7-tetrahydro-1H-pyrazolo[4,3-c]pyridin-3-yl]-benzonitrile (11j) on the refractory period of the left atrium and antiarrhythmic activity in the anesthetized pig after a bolus administration of 1 mg/kg is shown in table 12. From the results shown in table 12, it is seen that it was possible to prevent 82% of the induced arrhythmias.

Chain of Human TASK-1 channels (O14649 whole entry): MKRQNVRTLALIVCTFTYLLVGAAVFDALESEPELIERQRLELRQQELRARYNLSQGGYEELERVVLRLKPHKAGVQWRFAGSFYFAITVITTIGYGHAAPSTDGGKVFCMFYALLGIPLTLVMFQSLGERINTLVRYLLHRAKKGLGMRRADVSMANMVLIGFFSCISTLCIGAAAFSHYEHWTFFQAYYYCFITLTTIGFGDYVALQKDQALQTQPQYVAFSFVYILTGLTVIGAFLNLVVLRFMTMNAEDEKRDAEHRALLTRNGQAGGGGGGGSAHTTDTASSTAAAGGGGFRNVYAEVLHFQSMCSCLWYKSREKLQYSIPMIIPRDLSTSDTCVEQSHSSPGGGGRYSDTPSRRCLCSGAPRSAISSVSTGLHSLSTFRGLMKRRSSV

Row | SMILES | IC50 (Human TASK-1 channels) | % inhibition of the arrhythmias ([1]; S2-induced left-atrial arrhythmias, first hour after administration) | % increase in the refractory period ([1]; left atrium, 15 minutes after injection, mean of three rates (150, 200 and 250/min)) | inhibition at 5 µM (Human TASK-1 channels)
1 | CC(=O)N1CCc2c(c(-c3cccc(C#N)c3)nn2[C@@H]2c3cc(Cl)cc(F)c3C[C@H]2O)C1 [Example 11j, 3-[5-Acetyl-1-((1R,2R)-6-chloro-4-fluoro-2-hydroxy-indan-1-yl)-4,5,6,7-tetrahydro-1H-pyrazolo[4,3-c]pyridin-3-yl]-benzonitrile] | 439 nM | 82% | 20% | –
2 | CSc1cc(F)cc2c1C[C@@H](O)[C@@H]2n1nc(-c2cccc(C#N)c2)c2c1CCN(C(C)=O)C2 [Example 21c, 3-[5-Acetyl-1-((1R,2R)-6-fluoro-2-hydroxy-4-methylsulfanyl-indan-1-yl)-4,5,6,7-tetrahydro-1H-pyrazolo[4,3-c]pyridin-3-yl]-benzonitrile] | – | – | – | 87%
3 | CCNC(=O)N1CCc2c(c(-c3cccc(C#N)c3)nn2[C@@H]2c3cc(Cl)cc(Cl)c3C[C@H]2O)C1 [Example 22a, 3-(3-Cyano-phenyl)-1-((1R,2R)-4,6-dichloro-2-hydroxy-indan-1-yl)-1,4,6,7-tetrahydro-pyrazolo[4,3-c]pyridine-5-carboxylic acid ethylamide] | 180 nM | – | – | –
4 | CS(=O)(=O)N1CCc2c(c(-c3cccc(C#N)c3)nn2[C@@H]2c3cc(Cl)cc(Cl)c3C[C@H]2O)C1 [Example 23a, 3-[1-((1R,2R)-4,6-Dichloro-2-hydroxy-indan-1-yl)-5-methanesulfonyl-4,5,6,7-tetrahydro-1H-pyrazolo[4,3-c]pyridin-3-yl]-benzonitrile] | – | – | – | 80%
